# Source: patent publication US20120129843A1, “PYRIDYL-THIAZOLYL INHIBITORS OF PRO-MATRIX METALLOPROTEINASE ACTIVATION” (priority 2010, published 2012)
# Tests used:
# [1] = biological target: T1, MMP9 in ankles of SCW-induced rats (Rattus norvegicus, UniProt P50282); experiment: Pro and active MMP9 in ankles of rats with SCW-induced arthritis by Western blot; type: in vivo; details: Day 26, four hours after AM dose, FIG. 3A lanes 4-9
# T1 construct: from tissue; host or cells: tibia-tarsus joints (ankles) of female Lewis rats
# T1 sequence (P50282 20-708): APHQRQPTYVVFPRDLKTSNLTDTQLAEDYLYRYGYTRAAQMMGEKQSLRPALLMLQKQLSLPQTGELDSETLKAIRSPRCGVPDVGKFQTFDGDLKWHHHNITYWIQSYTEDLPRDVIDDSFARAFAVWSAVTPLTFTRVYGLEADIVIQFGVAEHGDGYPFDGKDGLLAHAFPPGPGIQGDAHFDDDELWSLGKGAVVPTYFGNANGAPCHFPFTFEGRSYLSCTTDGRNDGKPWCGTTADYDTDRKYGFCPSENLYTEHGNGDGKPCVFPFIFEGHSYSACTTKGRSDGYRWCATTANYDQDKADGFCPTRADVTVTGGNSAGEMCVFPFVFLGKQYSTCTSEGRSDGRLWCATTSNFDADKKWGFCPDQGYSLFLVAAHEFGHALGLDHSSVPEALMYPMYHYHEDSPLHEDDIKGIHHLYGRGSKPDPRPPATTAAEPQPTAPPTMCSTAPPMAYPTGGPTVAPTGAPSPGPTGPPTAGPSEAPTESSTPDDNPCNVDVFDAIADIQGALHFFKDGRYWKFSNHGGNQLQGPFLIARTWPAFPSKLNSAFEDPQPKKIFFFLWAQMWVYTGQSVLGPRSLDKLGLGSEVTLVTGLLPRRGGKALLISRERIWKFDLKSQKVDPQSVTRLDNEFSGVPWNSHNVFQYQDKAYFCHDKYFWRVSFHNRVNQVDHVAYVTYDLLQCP
# Procedure: Hind-limbs were skinned, severed just above the tibia-tarsus joint and below the metatarsals, and the tibia-tarsus joints (ankles) were weighed, snap frozen and pulverized on dry ice using a hammer and anvil. The pulverized tissue was suspended in 3 volumes (w:v) of ice-cold homogenization buffer containing 50 mM Tris pH 7.5, 150 mM NaCl, 5 mM EDTA, 1% Triton X100, 0.05% Brij 30, 10% dimethylsulfoxide and Complete EDTA-free Protease Inhibitor Cocktail (Roche Diagnostics). The suspended tissue was homogenized sequentially with a Kinematica AG Polytron and a Dounce homogenizer. Homogenates were centrifuged at 16,000×g for 10 min at 4° C. and the soluble fractions were saved. Dimethylsulfoxide was removed from a portion of each soluble fraction using PD MiniTrap™ G-25 desalting columns (GE Healthcare). Homogenates (0.25 mL), free of DMSO, were diluted with an equal volume of binding buffer (i.e., homogenization buffer without dimethylsufoxide) and adjusted to contain 50 μL of a 50% slurry of gelatin-conjugated sepharose. […]
# To induce arthritis, Female Lewis (LEW/N) rats, 5-6 weeks of age (80-100 g) were injected (i.p.) with SCW PG-PS as described above. […] Each ankle was measured 3 times and averaged, and treatment groups were randomized based on ankle thickness (Table 6). […]
# [2] = biological target: T2, MMP9 mediated gelatinase activity in the livers (Rattus norvegicus, UniProt P50282); experiment: In situ zymography of gelatinase activity in livers of SCW-induced rats dosed with compound; type: in vivo; details: for Intensity, Mean / Intensity, Rat 1 / Intensity, Rat 2 / Intensity, Rat 3: SCW, Day 25-28
# T2 construct: from tissue; host or cells: frozen liver sections of female Lewis rats
# T2 sequence (P50282 20-708): as above
# Source text: Compound-α Reduced MMP9 Mediated Gelatinase Activity in the Livers of Rats with SCW Arthritis In situ zymography provides an alternative approach to assess active MMP9 in tissues (Frederiks). Tissue sections are overlain with fluorescene-conjugated gelatin wherein the conjugation is sufficiently dense to cause the fluorescene to be dye-quenched (DQ). Proteolytic degradation of the DQ-gelatin releases the fluorescene from the quenching effect giving rise to bright green fluorescence at the site of degradation. Because in situ zymography requires the use of frozen sections, calcified tissues are problematic. However, an additional feature of the SCW arthritis model is the development of hepatic granulomatous disease (J Immunol; 1986; 137:2199-2209), and MMP9 reportedly plays a role in macrophage recruitment in the granulomas response to mycobacteria (Infect Immun; 2006; 74:6135-6144). Consequently, granulomatous livers from SCW-treated rats were assessed for active MMP9 by in situ zymography.
# As described above, Female Lewis (LEW/N) rats, 5-6 weeks of age (80-100 g) were injected (i.p.) with saline or SCW PG-PS. On day 28, when the granulomatous response was well established, animals were sacrificed and livers were frozen in OCT cryo-sectioning medium and 10 μm sections were cut on a Cryome HM 500 M cryotome and mounted on glass microscope slides. Sections were air dried briefly. MMP9 was confirmed as the source of the gelatinase activity in the liver by treating liver sections with monoclonal antibodies directed against the active site of the two major gelatinases MMP9 and MMP2. Liver sections overlain with 50 μL of 100 μg/mL neutralizing mouse monoclonal antibodies directed against MMP9 (Calbiochem, clone 6-6B), or MMP2 (Millipore, clone CA-4001), or with PBS for 1 hr at room temperature. Tissues were rinsed once with PBS, blotted, and briefly air dried and then overlain with DQ-gelatin (Invitrogen) dissolved to 1 mg/mL in deionized water and then diluted 1:10 in 1% wt/vol low gelling point agarose type VII (Sigma) in PBS. The sections were covered with coverslips, incubated in the dark at room temperature for 20 min, and imaged on an Olympus IX80 inverted microscope fitted with fluorescence optics, using SlideBook™ imaging software (Intelligent Imaging Innovations, Inc., Philadelphia, Pa.; version 5.0). Fluorescence intensity was determined (Table 8). When compared to a saline-treated rat, gelatinase activity was abundantly expressed in granulomatous liver sections obtained from a rat with SCW arthritis.
# Next, liver in situ zymography was used to assess the relative presence of active MMP9 in rats dosed with vehicle vs. Compound-α. Female Lewis (LEW/N) rats, 5-6 weeks of age (80-100 g) were injected (i.p.) with saline or SCW PG-PS. Commencing on day 25, randomized groups of rats (n=3 rats/group) received vehicle or 20 or 50 mg/kg Compound-α BID by oral gavage. Vehicle consisted of an aqueous mixture containing 2% (v:v) N-methylpyrrolidone, 5% (v:v) glycerine, and 20% (w:v) captisol. Treatment continued daily through the morning of day 28. Four hrs after the AM dose on day 28, rats were sacrificed and livers assessed for active MMP9 by in situ zymography (Table 9). Gelatinase activity was increased markedly in SCW-induced rats, but activity was reduced by approximately 80% in animals treated with 50 mg/kg Compound-α.
structure (smiles),measurement,setting,value
"Cc1nc(C)c(-c2csc(Nc3cc(S(N)(=O)=O)ccc3OC(C)C)n2)s1 [Compound-α, 3-(2′,4′-Dimethyl-[4,5′]bithiazolyl-2-ylamino)-4-isopropoxy-benzenesulfonamide.HBr]",abundance of proMMP9 in ankles,[1],did not reduce the abundance of proMMP9
same,abundance of proMMP9 in ankles,[1]; listed as Compound α,did not reduce the abundance of proMMP-9
same,reduction of liver gelatinase activity,"[2]; 50 mg/kg, SCW-induced rats",approximately 80%
same,"Intensity, Mean",[2]; 20 mg/kg BID oral,55.2 RLU × 10^6
same,"Intensity, Rat 1",[2]; 20 mg/kg BID oral,43.0 RLU × 10^6
same,"Intensity, Rat 2",[2]; 20 mg/kg BID oral,69.0 RLU × 10^6
same,"Intensity, Rat 3",[2]; 20 mg/kg BID oral,53.7 RLU × 10^6
same,"Intensity, Mean",[2]; 50 mg/kg BID oral,11.1 RLU × 10^6
same,"Intensity, Rat 1",[2]; 50 mg/kg BID oral,3.2 RLU × 10^6
same,"Intensity, Rat 2",[2]; 50 mg/kg BID oral,25.6 RLU × 10^6
same,"Intensity, Rat 3",[2]; 50 mg/kg BID oral,4.5 RLU × 10^6
